Test results taken from patent US5234948A, “Optically active alkylenedioxybenzene derivatives and their use in therapy” (Mitsubishi Kasei Corporation, priority 1990, dated 1993).
Counter-ions that a name gives are not always drawn.

Key:
[1] = molecular target: T1, 5-HT1A receptor (Rattus norvegicus, UniProt P19327); test: biochemical; assay type: binding; details: displacement of [3H]8-OH-DPAT, rat brain membranes, 37° C., 10 minutes; test compounds as HCl salt
T1 sequence (P19327 1-422): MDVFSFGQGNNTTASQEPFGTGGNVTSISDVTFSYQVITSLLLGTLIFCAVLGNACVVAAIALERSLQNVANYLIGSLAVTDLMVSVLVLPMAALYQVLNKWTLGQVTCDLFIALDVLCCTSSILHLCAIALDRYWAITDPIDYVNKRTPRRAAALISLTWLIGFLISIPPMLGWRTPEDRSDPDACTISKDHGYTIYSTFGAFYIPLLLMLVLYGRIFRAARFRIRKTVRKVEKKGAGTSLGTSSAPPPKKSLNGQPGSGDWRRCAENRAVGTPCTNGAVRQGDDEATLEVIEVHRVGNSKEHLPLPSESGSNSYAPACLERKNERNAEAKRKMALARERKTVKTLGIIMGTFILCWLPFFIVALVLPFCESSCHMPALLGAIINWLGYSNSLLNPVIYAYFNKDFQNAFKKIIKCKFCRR
Method: Thus, rat brain was homogenized in Tris-HCl buffer and centrifuged. The resultant precipitates were homogenized again with Tris-HCl buffer and incubated at 37° C. for ten minutes. The mixture was centrifuged again, and the precipitates were homogenized with Tris-HCl buffer containing pergiline, calcium chloride, and ascorbic acid to obtain a membrane preparation for use in the binding assay.
The preparation was mixed with [3H]8-OH-DPAT and a compound to be tested, and incubated at 37° C. for 10 minutes, filtered with whatman GF/B filter. Radioactivity remaining on the filter was measured by […].
Affinity of the test compound to 5-HT1A receptor is represented by Ki value which is calculated from the following equation. [formula] wherein [L] is the concentration of [3H]8-OH-DPAT, Kd is a dissociation constant, and IC50 is the concentration of test compound requisite for attaining 50% inhibition of the binding of [3H]8-OH-DPAT.

[2] = test system: rats; test: conflict test (modified method of Vogel et al), anxiolytic activity; assay type: in vivo, rat; details: oral, 1 hour after administration, control 7.4
Method: The conflict test was performed to examine the anxiolytic activity of compounds. A modification of the method of Vogel et al (Psychopharmacology21, 1, 1971) was used.
Rats were deprived of water for 38 hours prior to the first training session (unpunished session). Each animal was placed in a conflict test apparatus. The rat was allowed to drink water through a spout, and the frequency of drinking action within 10 min was counted. Only rats making more than 100 licks progressed to a further 24 hr deprivation of water. Twenty four hours after the unpunished session, the rat was placed again in the test box. The second session (pre-drug punished session) consisting of a 3 min period started when the rat completed 20 licks and received the first electric shock. After every 20 unpunished licks, subsequent licking was punished. Only rats in which the number of receiving the shocks was reduced by at most 25 times during the pre-drug punished session were included in the test.
The compound to be tested was orally administered to each rat. One hour after the administration, the rat was re-placed in the apparatus to be examined. The number of shocks was counted for three minutes. Buspirone, an anxioselective anxiolytic drug, was used as a positive control.
The anti-conflict activity was evaluated to be positive when the number of shocks in the treated group was higher than that in the control group.

[3] = test system: male and female rats; test: Acute Toxicity, oral, 7-days observation; assay type: in vivo, rat; details: p.o., suspended in 0.5% CMC-Na
Method: The compounds (I) suspended in 0.5% CMC-Na aqueous solution were orally administered to male and female rats, and 7-days observation was conducted. ALD (approximate lethal dose) value for Compound No. 1 was 100 mg/kg (p.o.).

[4] = test system: 5-HT1A receptor; details: in words, literature; cited from earlier work

SMILES | Ki [1] | also measured
c1ccc2c(c1)OCC(CNCCCCOc1ccc3c(c1)OCCCO3)O2 (racemic) [No. 6 (dl)] | 2.9 nM | –
c1ccc2c(c1)OCC(CNCCCOc1cccc3c1OCO3)O2 (racemic) [No. 13 (dl)] | 9.7 nM | –
c1ccc2c(c1)OC[C@H](CNCCCOc1ccc3c(c1)OCO3)O2 [Compound No. 1, 5-[3-{(2S)-(1,4-Benzodioxan-2-ylmethyl) -amino}propoxy[-1,3-benzodioxol hydrochloride] | 0.29 nM | Frequency of receiving the shocks ([2]; 0.05 mg/kg): 20.1 times/3 minutes; ALD (approximate lethal dose) [3]: 100 mg/kg
c1ccc2c(c1)OC[C@H](CNCCCCOc1ccc3c(c1)OCO3)O2 [Compound No. 4, 5-[4-{(2S)-(1,4-Benzodioxan-2-ylmethyl) -amino}butoxy]-1,3-benzodioxol hydrochloride] | 0.91 nM | –
O=C1c2ccccc2S(=O)(=O)N1CCCCN1CCN(c2ncccn2)CC1 [Ipsapirone, 2-{4-[4-(2-pyrimidinyl)-1-piperazynyl]butyl}-1,2-benzisothiazol-3-(2H)one-1,1-dioxydehydrochloride] | – | 5-HT1A receptor binding (known compounds) [4]: 5-HT1A receptor-binding compounds
O=C1C2C3CCC(C3)C2C(=O)N1CCCCN1CCN(c2ncccn2)CC1 (stereo not drawn) [SM-3997, 3aα, 4β, 7β, 7aβ-hexahydro-2-{4-[4-(2-pyrimidinyl)-1-piperazinyl]butyl}-4,7-methan-1H-isoindol-1,3(2H)dione dihydrogen citrate] | – | 5-HT1A receptor binding (known compounds) [4]: 5-HT1A receptor-binding compounds
c1ccc2c(c1)OC[C@H](CNCCCOc1ccc3c(c1)OCCO3)O2 [compound 2] | – | Frequency of receiving the shocks ([2]; 0.2 mg/kg): 21.8 times/3 minutes
c1ccc2c(c1)OC[C@H](CNCCCOc1ccc3c(c1)OCCCO3)O2 [compound 3] | – | Frequency of receiving the shocks ([2]; 0.2 mg/kg): 18.0 times/3 minutes

Second part, led by results:

Ki [1] | SMILES | also measured
1.6 nM | c1ccc2c(c1)OCC(CNCCCOc1ccc3c(c1)OCO3)O2 (racemic) [No. 1 (dl)] | Frequency of receiving the shocks ([2]; 0.25 mg/kg): 20.9 times/3 minutes
2.5 nM | c1ccc2c(c1)OCC(CNCCCOc1ccc3c(c1)OCCO3)O2 (racemic) [No. 2 (dl)] | –
7.6 nM | c1ccc2c(c1)OCC(CNCCCOc1ccc3c(c1)OCCCO3)O2 (racemic) [No. 3 (dl)] | –
4.09 nM | c1ccc2c(c1)OCC(CNCCCCCOc1ccc3c(c1)OCO3)O2 (racemic) [No. 7 (dl)] | –
1.84 nM | c1ccc2c(c1)OC[C@H](CNCCCCCOc1ccc3c(c1)OCO3)O2 [Compound No. 7, 5-[5-{(2S)-(1,4-Benzodioxan-2-ylmethyl) -amino}pentyloxy]-1,3-benzodioxol hydrochloride] | –
3.9 nM | c1ccc2c(c1)OC[C@@H](CNCCCOc1ccc3c(c1)OCO3)O2 [No. 1 (R)] | Frequency of receiving the shocks ([2]; 0.5 mg/kg): 12.5 times/3 minutes
